# Source: patent publication US20160068818A1, “A METHOD FOR GENERATING INDUCED PLURIPOTENT STEM CELLS” (Glykos Finland Oy, priority 2013, published 2016)
# “Also recorded” adds a separate entry of the source.
# Assays:
# Type in all cases: cell-based, human
# [1] = system: hESC and hiPSC (FES 29, HEL 11.4) attachment to ECA; assay: Validation of binding specificity: inhibition of cell attachment onto ECA; conditions: for inhibition of cell attachment onto ECA: 100 mM in culture media, attached cells counted after 20 h; for total number of attached cells with vs without pinacidil: on ECA, counted 20 h after plating
# Procedure: Cells were passaged and plated as described earlier. The two compounds expected to act as specific binding inhibitors for ECA were lactose monohydrate (Sigma-Aldrich, 100 mM) and lacto-N-neotetraose (Kyowa Hakko Kogyo, 100 mM). Saccharose (Sigma-Aldrich, 100 mM) was used as a control. The inhibitors were added to culture media at the time of passaging and the attached cells were counted after 20 hours.
# To assess the specificity of the cell-lectin interaction in supporting stem cell attachment to the growth surface, we performed inhibition experiments with specific disaccharide inhibitors and control disaccharides. […] The experiments were performed either in the presence (FIG. 4A) of absence (FIG. 4B) of pinacidil. Even if the effect of the inhibitors was similar in both conditions, the total number of attached cells was […] with pinacidil.
# The attached cells were counted 20 h after plating. Data represent the mean (±SEM) of both cell lines, FES 29 and HEL 11.4. The total number of attached cells was 2-4 fold higher when Pinacidil was used (p<0.001).
# [2] = system: hPSC lines FES29 and HEL 11.4; assay: Long-term culture of hPSC lines on ECA-coated plates (markers, qPCR array, karyotype); conditions: mEF conditioned media
# Procedure: Cells were passaged by using 0.1 mg/ml collagenase IV (Invitrogen) for 5 min at +37° C. and harvested onto ECA (Sigma-Aldrich) and Matrigel (Becton Dickinson) coated plates and cultured either in StemPro® or in mEF conditioned-medium (CM) (KO-DMEM supplemented with 20% KO-SR, 2 mM Glutamax, 0.1 mM β-mercaptoethanol, 0.1 mM non-essential amino acids (NEAA), all from Invitrogen, Carlsbad, Calif., USA) and supplemented with 8 ng/ml recombinant human bFGF (Invitrogen, Carlsbad, Calif., USA). Pinacidil (Sigma-Aldrich, 100 μM) was added to culture media during passaging. In some experiments, Y-27632 (10 μM) was added to culture media during passaging. In all experiments MatrigelTM (BD Biosciences) was used as control matrix. The Matrigel plates were prepared as recommended by the manufacturer. […] Real time SYBR Green quantitative PCR (qPCR) analyses was performed with Corbett Rotor-Gene 6000 (Corbett Life Science, Sydney, Australia) using the following conditions: 95° C. […] The data was analyzed according to comparative Ct method (Applied Biosystems, User Bulletin #2). […] All samples and controls were analyzed in duplicates. […] Karyotype was detected by G-banding technique in cytogenetics laboratory of the […] […] Long-term culturing on ECA-coated plates was evaluated with hPSCs lines (FES29 and HEL 11.4) and the results were compared to the same cell lines cultured on Matrigel. […]
# hPSC cells = assay: Clonogenicity assay on dispersed single cells; conditions: pinacidil 100 μM during passaging
# Procedure: Cells were dissociated with TrypLE for 5 minutes and passed through an 80-μm cell strainer (Becton Dickinson). Dissociated single cells from either ECA or Matrigel were seeded onto both ECA and Matrigel (35 cells/cm^2) and cultured in mouse embryonic fibroblast-conditioned medium (CM) supplemented with 8 ng/ml basic fibroblast growth factor (bFGF). Pinacidil (100 μM) was used during passaging. To evaluate clonogenic capacity, cells were alkaline phosphatase stained and colony numbers were counted 10 days after plating.
# The ability of the ECA matrix to support clonogenicity of hPSC cells was studied by plating dispersed cells first adapted to ECA or Matrigel for at least two passages on either of the two matrices at the density of 35 cells/cm^2.
compound,measurement,setting,value
CC(=O)N[C@H]1[C@H](O[C@H]2[C@@H](O)[C@@H](CO)O[C@@H](O[C@H]3[C@H](O)[C@@H](O)C(O)O[C@@H]3CO)[C@@H]2O)O[C@H](CO)[C@@H](O[C@@H]2O[C@H](CO)[C@H](O)[C@H](O)[C@H]2O)[C@@H]1O (mixture of isomers) [lacto-N-neotetraose],inhibition of cell attachment onto ECA,[1],as effective as lactose; also recorded: inhibited significantly
"O.OC[C@H]1O[C@@H](O[C@H]2[C@H](O)[C@@H](O)C(O)O[C@@H]2CO)[C@H](O)[C@@H](O)[C@H]1O (some centres unmarked) [Lactose, lactose monohydrate]",inhibition of cell attachment onto ECA,"[1]; listed as lactose monohydrate, monohydrate",inhibited significantly
same,inhibition of cell attachment onto ECA,[1]; monohydrate,inhibited cell attachment effectively
CC(N/C(=N\C#N)Nc1ccncc1)C(C)(C)C (centres unmarked) [pinacidil],total number of attached cells with vs without pinacidil,[1],4 fold
same,total number of attached cells with vs without pinacidil,[1]; listed as Pinacidil,2-4 fold
same,cell attachment and morphology on ECA without/with Rho-associated kinase inhibitor during passaging,[2],Without pinacidil the cells did not attach as effectively
same,development and survival of single-cell derived clones,hPSC cells,highly useful
OC[C@H]1O[C@@](CO)(O[C@H]2O[C@H](CO)[C@@H](O)[C@H](O)[C@H]2O)[C@@H](O)[C@@H]1O [saccharose],inhibition of cell attachment onto ECA,[1],no inhibitory activity
